Source: ChEMBL document CHEMBL3045481, “Insecticide-induced resurgence of the whitebacked planthopper Sogatella furcifera (Horvath) (Hemiptera: Delphacidae) on rice varieties with different levels of resistance” (Crop Prot, 2011)
The source made the active and inactive calls. The calls are words filed in the database; no cut-off is given here.

Experiments:
Sogatella furcifera [1] = assay: Insecticidal activity against Sogatella furcifera on insect-resistanct rice plant PR116 assessed as resurgence ratio at 0.100% concentration; format: functional
Oryza sativa [2] = assay: Effect on total protein level in Sogatella furcifera-resistanct Oryza sativa (rice) plant PR116 leaf sheath measured per gram of dry weight at 0.100% concentration (reference value: 7.06 mg/g fresh wt); format: ADME, organism-based; settings: in vivo
Oryza sativa [3] = assay: Effect on total phenols level in Sogatella furcifera-sensitive Oryza sativa (rice) plant ARC6248 leaf sheath measured per gram of dry weight at 0.100% concentration (reference value: 12.75 mg/g dry wt); format: ADME, organism-based; settings: in vivo
Oryza sativa [4] = assay: Effect on total amino acids level in Sogatella furcifera-resistanct Oryza sativa (rice) plant PR116 leaf sheath measured per gram of dry weight at 0.100% concentration (reference value: 2.58 mg/g […]); format: ADME, organism-based; settings: in vivo
Oryza sativa [5] = assay: Effect on total protein level in Sogatella furcifera-sensitive Oryza sativa (rice) plant ARC6248 leaf sheath measured per gram of dry weight at 0.100% concentration (reference value: 6.11 mg/g […]); format: ADME, organism-based; settings: in vivo
Oryza sativa [6] = assay: Effect on total amino acids level in Sogatella furcifera-sensitive Oryza sativa (rice) plant ARC6248 leaf sheath measured per gram of dry weight at 0.100% concentration (reference value: 2.11 mg/g fresh wt); format: ADME, organism-based; settings: in vivo
Oryza sativa [7] = assay: Effect on total phenols level in Sogatella furcifera-resistanct Oryza sativa (rice) plant PR116 leaf sheath measured per gram of dry weight at 0.100% concentration (reference value: 5.75 mg/g dry wt); format: ADME, organism-based; settings: in vivo
Sogatella furcifera [8] = assay: Insecticidal activity against Sogatella furcifera on insect-sensitive rice plant ARC6248 assessed as reproduction at 0.100% concentration; format: functional, organism-based
Sogatella furcifera [9] = assay: Insecticidal activity against Sogatella furcifera on insect-sensitive rice plant ARC6248 assessed as growth index at 0.100% concentration (reference value: 2.38%); format: functional
Sogatella furcifera [10] = assay: Insecticidal activity against Sogatella furcifera on insect-sensitive rice plant ARC6248 assessed as nymphal survival at 0.100% concentration (reference value: 34.17%); format: functional
Sogatella furcifera [11] = assay: Insecticidal activity against Sogatella furcifera on insect-sensitive rice plant ARC6248 assessed as nymphal duration at 0.100% concentration (reference value: 14.48 days); format: functional
Oryza sativa [12] = assay: Effect on total phenols level in Sogatella furcifera-sensitive Oryza sativa (rice) plant ARC6248 leaf blade measured per gram of dry weight at 0.100% concentration (reference value: 17.08 mg/g dry wt); format: ADME, organism-based; settings: in vivo
Oryza sativa [13] = assay: Effect on reducing sugar level in Sogatella furcifera-resistanct Oryza sativa (rice) plant PR116 leaf blade measured per gram of dry weight at 0.100% concentration (reference value: 9.35 mg/g dry wt); format: ADME, organism-based; settings: in vivo
Oryza sativa [14] = assay: Effect on total amino acids level in Sogatella furcifera-resistanct Oryza sativa (rice) plant PR116 leaf blade measured per gram of dry weight at 0.100% concentration (reference value: 3.91 mg/g […]); format: ADME, organism-based; settings: in vivo
Oryza sativa [15] = assay: Effect on total amino acids level in Sogatella furcifera-sensitive Oryza sativa (rice) plant ARC6248 leaf blade measured per gram of dry weight at 0.100% concentration (reference value: 3.54 mg/g fresh wt); format: ADME, organism-based; settings: in vivo
Sogatella furcifera [16] = assay: Insecticidal activity against Sogatella furcifera on insect-sensitive rice plant ARC6248 assessed as resurgence ratio at 0.100% concentration; format: functional
Oryza sativa [17] = assay: Effect on total phenols level in Sogatella furcifera-resistanct Oryza sativa (rice) plant PR116 leaf blade measured per gram of dry weight at 0.100% concentration (reference value: 8.08 mg/g dry wt); format: ADME, organism-based; settings: in vivo
Oryza sativa [18] = assay: Effect on reducing sugar level in Sogatella furcifera-sensitive Oryza sativa (rice) plant ARC6248 leaf blade measured per gram of dry weight at 0.100% concentration (reference value: 8.37 mg/g dry wt); format: ADME, organism-based; settings: in vivo
Oryza sativa [19] = assay: Effect on total sugar level in Sogatella furcifera-resistanct Oryza sativa (rice) plant PR116 leaf blade measured per gram of dry weight at 0.100% concentration (reference value: 36.16 mg/g dry wt); format: ADME, organism-based; settings: in vivo
Oryza sativa [20] = assay: Effect on total sugar level in Sogatella furcifera-sensitive Oryza sativa (rice) plant ARC6248 leaf sheath measured per gram of dry weight at 0.100% concentration (reference value: 25.98 mg/g dry wt); format: ADME, organism-based; settings: in vivo
Oryza sativa [21] = assay: Effect on reducing sugar level in Sogatella furcifera-sensitive Oryza sativa (rice) plant ARC6248 leaf sheath measured per gram of dry weight at 0.100% concentration (reference value: 6.41 mg/g dry wt); format: ADME, organism-based; settings: in vivo
Oryza sativa [22] = assay: Effect on total protein level in Sogatella furcifera-sensitive Oryza sativa (rice) plant ARC6248 leaf blade measured per gram of dry weight at 0.100% concentration (reference value: 17.67 mg/g […]); format: ADME, organism-based; settings: in vivo
Sogatella furcifera [23] = assay: Insecticidal activity against Sogatella furcifera on insect-resistanct rice plant PR116 assessed as nymphal survival at 0.100% concentration (reference value: 70.28%); format: functional
Sogatella furcifera [24] = assay: Insecticidal activity against Sogatella furcifera on insect-resistanct rice plant PR116 assessed as nymphal duration at 0.100% concentration (reference value: 11.75 days); format: functional
Sogatella furcifera [25] = assay: Insecticidal activity against Sogatella furcifera on insect-resistanct rice plant PR116 assessed as growth index at 0.100% concentration (reference value: 6.02%); format: functional
Oryza sativa [26] = assay: Effect on total sugar level in Sogatella furcifera-resistanct Oryza sativa (rice) plant PR116 leaf sheath measured per gram of dry weight at 0.100% concentration (reference value: 30.27 mg/g dry wt); format: ADME, organism-based; settings: in vivo
Oryza sativa [27] = assay: Effect on total protein level in Sogatella furcifera-resistanct Oryza sativa (rice) plant PR116 leaf blade measured per gram of dry weight at 0.100% concentration (reference value: 21.67 mg/g fresh wt); format: ADME, organism-based; settings: in vivo
Sogatella furcifera [28] = assay: Insecticidal activity against Sogatella furcifera on insect-resistanct rice plant PR116 assessed as hopper population at 0.100% concentration; format: functional, organism-based
Oryza sativa [29] = assay: Effect on total sugar level in Sogatella furcifera-sensitive Oryza sativa (rice) plant ARC6248 leaf blade measured per gram of dry weight at 0.100% concentration (reference value: 34.05 mg/g dry wt); format: ADME, organism-based; settings: in vivo
Oryza sativa [30] = assay: Effect on reducing sugar level in Sogatella furcifera-resistanct Oryza sativa (rice) plant PR116 leaf sheath measured per gram of dry weight at 0.100% concentration (reference value: 7.50 mg/g dry wt); format: ADME, organism-based; settings: in vivo

SMILES	Ratio (Sogatella furcifera [1])	Activity (Oryza sativa [2]) [mg]	Activity (Oryza sativa [3]) [mg]	Activity (Oryza sativa [4]) [mg]	Activity (Oryza sativa [5]) [mg]	Activity (Oryza sativa [6]) [mg]	Activity (Oryza sativa [7]) [mg]	Activity (Sogatella furcifera [8])	growth inhibition (GI) (Sogatella furcifera [9]) [%]	Survival (Sogatella furcifera [10]) [%]	Time (Sogatella furcifera [11]) [days]	Activity (Oryza sativa [12]) [mg]	Activity (Oryza sativa [13]) [mg]	Activity (Oryza sativa [14]) [mg]	Activity (Oryza sativa [15]) [mg]	Ratio (Sogatella furcifera [16])	Activity (Oryza sativa [17]) [mg]	Activity (Oryza sativa [18]) [mg]	Activity (Oryza sativa [19]) [mg]	Activity (Oryza sativa [20]) [mg]	other results
CCOP(=S)(OCC)Oc1nc(Cl)c(Cl)cc1Cl [CHLORPYRIFOS]	<1	7.72	14.08	2.22	5	1.75	6.08	inactive	2.25	32.5	14.63	18.75	9.13	4	3	<1	7.67	7.5	39.37	25.98	Activity (Oryza sativa [21]): 6.31 mg; Activity (Oryza sativa [22]): 18.22 mg; Survival (Sogatella furcifera [23]): 69.45%; Time (Sogatella furcifera [24]): 11.75 days; growth inhibition (GI) (Sogatella furcifera [25]): 5.94%; Activity (Oryza sativa [26]): 31.34 mg; Activity (Oryza sativa [27]): 19.44 mg; Activity (Sogatella furcifera [28]): inactive; Activity (Oryza sativa [29]): 33.21 mg; Activity (Oryza sativa [30]): 7.72 mg
O=S1OCC2C(CO1)C1(Cl)C(Cl)=C(Cl)C2(Cl)C1(Cl)Cl (stereo not given) [ENDOSULFAN]	<1	7.78	17.08	2.4	5	2.46	7.83	inactive	2.24	32.22	14.5	21.75	8.26	3.38	3.31	<1	10	7.94	34.02	30	Activity (Oryza sativa [21]): 5.98 mg; Activity (Oryza sativa [22]): 16.56 mg; Survival (Sogatella furcifera [23]): 67.5%; Time (Sogatella furcifera [24]): 12 days; growth inhibition (GI) (Sogatella furcifera [25]): 5.66%; Activity (Oryza sativa [26]): 28.12 mg; Activity (Oryza sativa [27]): 18.33 mg; Activity (Sogatella furcifera [28]): inactive; Activity (Oryza sativa [29]): 34.55 mg; Activity (Oryza sativa [30]): 7.17 mg
CCOP(=S)(OCC)Oc1cnc2ccccc2n1 [QUINALPHOS]	1.31	8.5	1308	2.93	7.22	2.38	5.67	inactive	2.61	37.5	14.46	17.08	13.04	4.89	3.61	1.13	6.75	10	42.05	31.87	Activity (Oryza sativa [21]): 8.8 mg; Activity (Oryza sativa [22]): 21.56 mg; Survival (Sogatella furcifera [23]): 72.22%; Time (Sogatella furcifera [24]): 11.65 days; growth inhibition (GI) (Sogatella furcifera [25]): 6.24%; Activity (Oryza sativa [26]): 30.27 mg; Activity (Oryza sativa [27]): 22.78 mg; Activity (Sogatella furcifera [28]): inactive; Activity (Oryza sativa [29]): 38.84 mg; Activity (Oryza sativa [30]): 11.31 mg
